Results: US4482486A, “Analogs of vasopressin” (Ceskoslovenska akademie ved, priority 1982, dated 1984)

Columns and labels:
Assay type in all cases: in vivo
rats [1] = experiment: Uterotonic endocrine activity in rats; settings: rat
Description: (§1) The endocrine biological activities (in I.U./mg--International Unit--see "Handbook of Experimental Pharmacology", Vol. XXIII: Neurohypophysical hormones and similar polypeptides (B. Berde, Ed), p. 131, Springer-Verlag,Berlin 1968) of the described compounds were determined in rats.

rats [2] = experiment: Galactogogic endocrine activity in rats; settings: rat
Description: as §1

rats [3] = experiment: Pressor endocrine activity in rats; settings: rat
Description: as §1

anaesthesized rat = experiment: Antidiuretic activity, anaesthesized rat
Description: as §1

nonanaesthesized rat = experiment: Antidiuretic activity, nonanaesthesized rat; settings: percent of the effect of [8D-argine] deaminovasopressin at the level of threshold efficiency
Description: as §1
b = nonanaesthesized rat Activity is expressed in percent of the effect o
[8D-argine] deaminovasopressin at the level of threshold efficiency

Compound	Uterotonic activity (rats [1]) [I.U./mg]	Galactogogic activity (rats [2]) [I.U./mg]	Pressor activity (rats [3])	Antidiuretic activity a (anaesthesized rat) [I.U./mg]	Antidiuretic activity b (nonanaesthesized rat) [%]
NC(=O)CC[C@@H]1NC(=O)[C@H](Cc2ccccc2)NC(=O)[C@H](Cc2ccc(O)cc2)NC(=O)[C@@H](N)CSSC[C@@H](C(=O)N2CCC[C@H]2C(=O)N[C@@H](CCCN=C(N)N)C(=O)NCC(N)=O)NC(=O)[C@H](CC(N)=O)NC1=O [AVP, [8arginine] vasopressin, reference compound]	17	69	465 I.U./mg	465	20
Lactam of tyrosyl-phenylalanyl-glutaminyl-asparaginyl-S-(γ-carboxypropyl)cysteinyl-prolyl-D-arginine [Ia]	0.09	–	inhibition	0.8	0.2
[8-D-Arginine, 9-desglycinamide] vasopressin [Ib]	0.07	0.12	0.2 I.U./mg	4.5	0.4
[8-Ornithine, 9-desglycinamide]vasopressin [Ic]	0.09	0.02	0.2 I.U./mg	0.3	0.1
